From patent EP0231444A2, “Optically active isomers and racemate of 1-(benztriazol-4-yloxy)-3-[2-(2-methoxyphenoxy)-ethylamino]-2-propanol, process for their preparation as well as their use as medicaments” (BOEHRINGER MANNHEIM GMBH, priority 1985, dated 1987)
Where a name gives a salt, the structure may show the parent alone.

Assays:
[1] = biological target: β₁-Rezeptoren (Rezeptoren des Herzmuskels) (Homo sapiens, UniProt P08588); assay: beta-1 adrenergic receptor blockade (no method described); details: qualitative statement
β₁-Rezeptoren (Rezeptoren des Herzmuskels), sequence (P08588 whole entry): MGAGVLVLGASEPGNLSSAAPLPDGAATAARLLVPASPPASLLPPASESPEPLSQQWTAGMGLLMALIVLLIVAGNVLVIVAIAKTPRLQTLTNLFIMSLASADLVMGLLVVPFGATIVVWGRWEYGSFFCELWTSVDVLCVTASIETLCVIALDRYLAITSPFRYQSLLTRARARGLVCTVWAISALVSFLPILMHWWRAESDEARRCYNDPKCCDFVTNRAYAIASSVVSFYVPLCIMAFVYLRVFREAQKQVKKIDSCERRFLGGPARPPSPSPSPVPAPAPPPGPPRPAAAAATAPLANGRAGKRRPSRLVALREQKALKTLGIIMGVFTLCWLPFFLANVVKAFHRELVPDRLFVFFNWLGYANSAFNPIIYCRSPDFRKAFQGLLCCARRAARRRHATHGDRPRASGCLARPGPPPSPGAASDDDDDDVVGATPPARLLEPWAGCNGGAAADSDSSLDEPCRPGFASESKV

Blutgefäße [2] = assay: vasodilating effect (no method described); details: qualitative statement, enantiomers
[3] = biological target: β₂-Rezeptoren (Rezeptoren der glatten Muskulatur) (Homo sapiens, UniProt P07550); assay: beta-2 adrenergic receptor blockade (no method described); details: qualitative statement
β₂-Rezeptoren (Rezeptoren der glatten Muskulatur), sequence (P07550 whole entry): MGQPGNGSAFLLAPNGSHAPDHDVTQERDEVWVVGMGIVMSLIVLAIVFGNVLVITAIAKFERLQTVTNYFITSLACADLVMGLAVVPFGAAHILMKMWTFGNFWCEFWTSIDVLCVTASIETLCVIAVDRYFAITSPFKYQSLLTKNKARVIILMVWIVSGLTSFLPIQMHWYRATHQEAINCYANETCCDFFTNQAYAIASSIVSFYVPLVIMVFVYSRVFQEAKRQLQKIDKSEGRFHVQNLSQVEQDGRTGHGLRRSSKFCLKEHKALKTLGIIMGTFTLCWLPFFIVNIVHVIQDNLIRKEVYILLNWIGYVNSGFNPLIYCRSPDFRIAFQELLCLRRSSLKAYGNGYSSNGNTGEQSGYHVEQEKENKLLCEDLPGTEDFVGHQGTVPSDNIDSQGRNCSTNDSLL

Augeninnendruck = assay: lowering of intraocular pressure on local application (no method described); format: in vivo; details: lokale Applikation, qualitative statement
Blutgefäße [4] = details: as described in EP-B 14 951; cited from earlier work
[5] = listed as erfindungsgemäße Substanz

COc1ccccc1OCCNC[C@H](O)COc1cccc2[nH]nnc12 (single isomer, unassigned) [S-Enantiomere, S-(-)-1-(Benztriazol-4-yloxy)-3-(2-(2-methoxyphenoxy)-ethyl-amino)-2-propanol-hydrochlorid]
β₁-blockierende Wirkung [1]: praktisch die gesamte | vasodilatierende / blutgefäßerweiternde Wirkung (Blutgefäße [2]): blutgefäßerweiternde

COc1ccccc1OCCNC[C@@H](O)COc1cccc2[nH]nnc12 (single isomer, unassigned) [R-Enantiomere]
β₁-blockierende Wirkung [1]: keine β₁-blockierende | β₂-blockierende Wirkung [3]: keine β₂-blockierende | augeninnendrucksenkende Wirkung (Augeninnendruck): augendrucksenkenden Wirkung

COc1ccccc1OCCNCC(O)COc1cccc2[nH]nnc12 (racemic) [racemische Substanz, 1-(Benztriazol-4-yloxy)-3-(2-(2-methoxyphenoxy)-ethylamino)-2-propanol]
Selektivität β₁ gegenüber β₂ (cardioselektiv) ([1]; β₁ versus β₂): cardioselektiv | β₁-blockierende Wirkung ([1]; listed as Beispiel 8 b): vorwiegend eine β₁-blockierende Wirkung | β₁-blockierende Wirkung [1, 5]: β₁-blockierende Wirkung besitzt | β₂-blockierende Wirkung ([3]; listed as Beispiel 8 b): nicht oder nur wenig beeinflußt | β₂-blockierende Wirkung [3, 5]: nur sehr geringe β₂-blockierende Wirkung | augeninnendrucksenkende Wirkung (Augeninnendruck): in extrem geringer Konzentration | augeninnendrucksenkende Wirkung (Augeninnendruck; [5]): im gleichen Maße vorhanden ist wie bei üblichen bekannten β-blockierenden Verbindungen | vasodilatierende Eigenschaften (Blutgefäße [4]): vasodilatierende Eigenschaften
